Results reported in paper PMC11206691, “N-Hydroxypiridinedione: A Privileged Heterocycle for Targeting the HBV RNase H” (Molecules, 2024).
Like-named read-outs stand apart in the source and are kept apart here.

How the values were obtained:
[1] = Parallel artificial membrane permeability assay; format: in vitro ADME; design: key to Papp Interpretation: High rate of apparent passive permeability (>1 × 10^−6 cm/s); Low rate of apparent passive permeability (<1 × 10^−6 cm/s); INS: Compound was insoluble in 100% DMSO; details: for Papp Interpretation: pH 7.4; for Papp: pH 7.4, 200 μM; for Papp / Papp at 2 h, 200 µM: 2 h, room temperature; for Papp interpretation (high/low permeability category) at 2 h, 200 µM / Papp at 2 h, 200 µM: PAMPA; for Papp interpretation (high/low permeability category) at 2 h, 200 µM: pH 7.4, pH 7.4; for Papp at 2 h, 200 µM: pH 7.4, pH 7.4, 200 μM
Method: Apparent passive permeability (Papp) was assessed at pH 7.4 using a 96-well donor/acceptor cassette (Sigma Aldrich, Burlington, MA, USA), which mimics the apical and basolateral sides of the small intestine epithelium, as we have described previously. Briefly, an artificial membrane composed of 1% w/v lethicin/dodecane was added to the poly (vinylidene fluoride) (PVDF) membrane filter. Once dry, compounds (200 μM) were diluted in buffer at pH 7.4 and added to the donor side of the membrane, and the same pH buffer was added to the acceptor side. The cassette was assembled and incubated at room temperature with shaking at 250 rpm for 2 h, after which 100 μL of the acceptor well was retrieved and the experimental compound absorbance was read on a plate reader between 200 and 600 nm. Compound Papps (cm/s) values were determined by normalizing to the compound absorbance at equilibrium, incubation time, and membrane porosity Two or more replicate assays were conducted on different days.

[2] = Solubility limit assay (turbidity, DMEM-F12 + 10% FBS); format: physicochemical; details: pH 7.4, DMEM-F12 with 10% FBS, 1% DMSO, upper limit 200 µM
Method: Compound solubility limits were tested in DMEM-F12 without phenol red (Gibco, Grand Island, NY, USA) supplemented with 10% FBS (pH 7.2–7.4) to mimic cell culture experiments, as we have performed previously. Compounds were serially diluted in buffer at pH 7.4 in 384-well, optically clear plates (upper limit 200 µM, DMSO 1%) and read on a plate reader at 620 nm. Compound concentration (µM) was plotted against optical density (OD) and a solubility limit was determined by identifying an inflection point where there was a significant increase in optical density due to increasing turbidity; the concentration of the compound at the inflection point was defined as the solubility limit. Two or more replicate assays were performed on different days for each compound.

[3] = system: HBV replication; assay: qPCR HBV replication inhibition assay in HepDES19 cells; format: cell-based, Hepatitis B virus (HBV) genotype D; details: 72 h, (+) DNA qPCR
Method: (§1) HepDES19 cells were incubated on collagen-coated plates at 37 °C with 5% CO2 and saturating humidity in Dulbecco’s modified Eagle’s medium (DMEM/F12) (Cytiva Life Sciences, Marlborough, MA, USA) supplemented with 10% fetal bovine serum (FBS), penicillin (100 IU/mL), and streptomycin (100 µg/mL). HepDES19 cells are HepG2 cells that carry a stably transfected HBV genotype D genome under the control of a tetracycline repressible promoter. Cells were maintained in the presence of 1 µg/mL tetracycline to repress the expression of the stably integrated HBV genome, and HBV replication was induced by the withdrawal of tetracycline from the culture medium.
HBV replication inhibition was measured in HepDES19 cells induced to replicate HBV by the removal of tetracycline using a strand-preferential quantitative PCR assay as previously described. Cells were seeded at 4 × 10^4 cells/well in 96-well plates for 48 h. Serially diluted compound was then added to cells at a final concentration of 1% DMSO for 72 h, after which the cells were lysed and qPCR was performed as described in Li et al.. EC50 values were calculated from the (+) DNA data with GraphPad Prism using the four-parameter log (inhibitor) versus response algorithm with the bottom value set to zero. Three or more replicate assays were performed on different days.

[4] = MTS cytotoxicity assay; format: cell-based; details: human, HepDES19 cells
Method: as §1
Cell viability was assessed using the CellTiter 96^TM Aqueous Non-Radioactive Cell Proliferation assay (MTS) (Promega, Madison, WI, USA) as described previously. HepDES19 cells were seeded at 1 × 10^4 cells per well in 96-well, and compound was added after 48 h. Cells incubated with serially diluted compound (1% DMSO) for 72 h. Bac absorbance values were subtracted, and data were converted to percent cell viability. The cytotoxic concentration 50% (CC50) values were calculated with GraphPad Prism by using the four-parameter variable response log (inhibitor) versus response algorithm with the bottom value set to zero. Three or more replicate assays were performed on different days.

[5] = Hepatitis B virus, read-out: EC50
[6] = DMEM-F12 without phenol red with 10% FBS, plasma or biological fluid, kinetic from dmso stock

Row | Molecule | Papp Interpretation [1] | Papp [1] | solubility [2] [µM] | EC50 [3, 5] [µM] | Papp interpretation (high/low permeability category) at 2 h, 200 µM [1] [×10⁻⁶ cm/s] | Papp at 2 h, 200 µM [1] [×10⁻⁶ cm/s] | melting point | solubility [2, 6] [µM] | CC50 at 72 h [4] [µM] | EC50 [3] | Solubility Limit [2]
1 | 2,6-Diamino-4-(3-methoxyphenoxy)-1,6-dihydropyrimidine 1-oxide [Compound 55] | H (High rate of apparent passive permeability (>1 × 10^−6 cm/s)) | 6.17 ×10⁻⁶ cm/s | > 200 | – | – | – | – | – | – | – | –
2 | CSc1ccc(CON=C(C)c2c(C)cc(=O)n(O)c2O)cc1 [Compound 33, 1,6-Dihydroxy-4-methyl-5-(1-(((4(methylthio)benzyl)oxy)imino)ethyl)pyridin-2(1H)-one] | – | – | – | 1.4 ± 0.7 | > 1 | 4.35 | 110 to 115 °C (dec.) | > 200 | 100 | – | –
3 | COC(=O)c1ccc(C(C)ON=C(C)c2c(C)cc(=O)n(O)c2O)cc1 (centres unmarked) [Compound 34, Methyl-4-(1-(((1-(1,2-dihydroxy-4-methyl-6-oxo-1,6-dihydropyridin-3-yl)ethylidene)amino)oxy)ethyl)benzoate] | – | – | – | 6.3 ± 5.5 | > 1 | 2.5 | 130 °C (dec.) | 50 | 96 ± 5.7 | – | –
4 | COc1cccc(CON=C(C)c2c(C)cc(=O)n(O)c2O)c1 [Compound 35, 1,6-Dihydroxy-5-(1-(((3-methoxybenzyl)oxy)imino)ethyl)-4-methylpyridin-2(1H)-one] | – | – | – | 1.9 ± 1.2 | > 1 | 6.19 | 120 to 122 °C (dec.) | 117 | 90 ± 14.1 | – | –
5 | COC(=O)c1cc(Cl)c(CON=C(C)c2c(C)cc(=O)n(O)c2O)c(Cl)c1 [Compound 36, Methyl 3,5-dichloro-4-((((1-(1,2-dihydroxy-4-methyl-6-oxo-1,6-dihydropyridin-3-yl)ethylidene)amino)oxy)methyl)benzoate] | – | – | – | 3.1 ± 0.4 | > 1 | 4.35 | 117 to 119 °C (dec.) | 163 | 100 | – | –
6 | CC(=NOC(CNC(=O)c1ccco1)c1cc(F)cc(F)c1)c1c(C)cc(=O)n(O)c1O (centres unmarked) [Compound 37, N-(2-(3,5-Difluorophenyl)-2-(((1-(1,2-dihydroxy-4-methyl-6-oxo-1,6-dihydropyridin-3-yl)ethylidene)amino)oxy)ethyl)furan-2-carboxamide] | – | – | – | 4.7 ± 3 | > 1 | 4.96 | 118 to 120 °C (dec.) | 175 | 100 | – | –
7 | CC(=NOC(c1cc(F)cc(F)c1)c1ccccn1)c1c(C)cc(=O)n(O)c1O (centres unmarked) [Compound 38, 5-(1-(((3,5-Difluorophenyl)(pyridin-2-yl)methoxy)imino)ethyl)-1,6-dihydroxy-4-methylpyridin-2(1H)-one] | – | – | – | 2.3 ± 0.2 | > 1 | 2.61 | 102 to 104 °C (dec.) | 167 | 47.1 ± 21.7 | – | –
8 | CC(=NOCc1ccc(O)cc1)c1c(C)cc(=O)n(O)c1O [Compound 39, 1,6-Dihydroxy-5-(1-(((4-hydroxybenzyl)oxy)imino)ethyl)-4-methylpyridin-2(1H)-one] | – | – | – | 5.2 ± 0.9 | > 1 | 5.21 | 98 to 100 °C (dec.) | > 200 | 91.1 ± 14.3 | – | –
9 | C#CCCCON=C(C)c1c(C)cc(=O)n(O)c1O [Compound 40, 1,6-Dihydroxy-4-methyl-5-(1-((pent-4-yn-1-yloxy)imino)ethyl)pyridin-2(1H)-one] | – | – | – | 2.5 ± 0.6 | > 1 | 3.36 | 93 to 95 °C (dec.) | > 200 | 53.6 ± 31.4 | – | –
10 | C#CCCON=C(C)c1c(C)cc(=O)n(O)c1O [Compound 41, 5-(1-((But-3-yn-1-yloxy)imino)ethyl)-1,6-dihydroxy-4-methylpyridin-2(1H)-one] | – | – | – | 1.2 ± 0.2 | > 1 | 2.24 | 86 to 89 °C (dec.) | > 200 | 57.5 ± 32.4 | – | –
11 | C#CCON=C(C)c1c(C)cc(=O)n(O)c1O [Compound 42, 1,6-Dihydroxy-4-methyl-5-(1-((prop-2-yn-1-yloxy)imino)ethyl)pyridin-2(1H)-one] | – | – | – | 5.4 ± 2.2 | > 1 | 3.74 | 78 to 80 °C (dec.) | 167 | 81.7 ± 18.6 | – | –
12 | COC(=O)c1ccc(CON=C(C)c2c(C)cc(=O)n(O)c2O)c(C#N)c1 [Compound 44, 2′-Cyano-4′-((((1′-(1,2-dihydroxy-4-methyl-6-oxo-1,6-dihydropyridin-5-yl)ethylidene)amino)oxy)methyl)methyl benzoate] | – | – | – | 7.7 ± 1.4 | > 1 | 5.42 | 115 °C | > 200 | 91.9 ± 11.2 | – | –
13 | COC(=O)c1ccc(CON=C(C)c2c(C)cc(=O)n(O)c2O)c(F)c1 [Compound 45, Methyl 4-((((1-(1,2-dihydroxy-4-methyl-6-oxo-1,6-dihydropyridin-3-yl)ethylidene)amino)oxy)methyl)-3-fluorobenzoate] | – | – | – | 3.2 ± 0.4 | > 1 | 3.54 | 130 °C (dec.) | > 200 | 90.2 ± 13.8 | – | –
14 | Nc1cc(Oc2cc(Cl)c(Cl)cc2Cl)nc(N)[n+]1[O-] [Compound 56, 2,6-Diamino-4-(2′,4′,5′-trichloro)-1,6-dihydropyrimidine 1-oxide] | – | – | – | > 100 | > 1 | 3.85 | 135 °C | 167 | – | – | –
15 | Nc1cc(Oc2ccc(Cl)cc2Cl)nc(N)[n+]1[O-] [Compound 57, 2,6-Diamino-4-(2′,4′-dichloro)-1,6-dihydropyrimidine 1-oxide] | – | – | – | > 100 | > 1 | 2.99 | 160 °C | 100 | – | – | –
16 | COc1ccc(COc2cc(N)[n+]([O-])c(N)n2)cc1 [Compound 58, 2,6-Diamino-4-((4-methoxybenzyl)oxy)pyrimidine 1-oxide] | – | – | – | > 100 | > 1 | 2.56 | > 250 °C | > 200 | – | – | –
17 | COC(=O)c1ccc(CO/N=C(\C)C2C(=O)NC(=O)NC2=O)cc1 [Compound 59, Methyl 4′-((((1-(2,4,6-Trioxohexahydropyrimidin-5-yl)ethylidene)amino)oxy)methyl)benzoate] | INS | INS | – | – | – | – | > 250 °C | – | – | lacked any inhibitory activity | INS
